Results on 1 molecule are retold here after publication PMC6327044, “A chemical biology screen identifies a vulnerability of neuroendocrine cancer cells to SQLE inhibition” (Nature Communications, 2019).

What all share (experiment): cells
Common to all, as to parameters: species or system panel of 482 human cancer cell lines; ATPLite luminescence growth inhibition after treatment, nine-point dilution curve, 482 cancer cell lines, 384-well
Conditions in all cases: 72 h, recommended growth medium

In one assay the test system is NCIH1869_LUNG. A digest of the protocol: (§1)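 Growth inhibition was measured across a panel of 482 cancer cell lines. Cells were plated at 500 cells per well in recommended growth media in black, tissue culture treated 384-well plates, centrifuged to equilibrate, and incubated 24 h before dosing. Compounds were tested as nine-point dilution curves for 72 h, with viability read by ATPLite luminescence relative to DMSO-treated controls.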

The test system of a further assay is NCIH1666_LUNG. A digest of the protocol:
as §1

A further assay has as its system NCIH2126_LUNG. A digest of the protocol: as §1
Assay [1] deals with HUNS1_HAEMATOPOIETIC_AND_LYMPHOID_TISSUE. A digest of the protocol:
as §1

The subject of a further assay is HEC1A_ENDOMETRIUM
A digest of the protocol:
as §1

For another assay, the system named is LK2_LUNG. A digest of the protocol: as §1
Another assay concerns JHH5_LIVER. A digest of the protocol: as §1
The subject of another assay is NCIH1435_LUNG. A digest of the protocol:
as §1

The next assay has as its system EVSAT_BREAST. A digest of the protocol: as §1
The test system of the next assay is SNU503_LARGE_INTESTINE
A digest of the protocol: as §1

The next assay concerns KYSE510_OESOPHAGUS
A digest of the protocol: as §1

The subject of a further assay is CHP126_AUTONOMIC_GANGLIA. A digest of the protocol:
as §1

The test system of the next assay is SKMEL3_SKIN. A digest of the protocol: as §1
For assay [2], the system named is JVM13_HAEMATOPOIETIC_AND_LYMPHOID_TISSUE. A digest of the protocol: as §1
Assay [3] deals with SUDHL5_HAEMATOPOIETIC_AND_LYMPHOID_TISSUE. A digest of the protocol:
as §1

For assay [4], the system named is KMS34_HAEMATOPOIETIC_AND_LYMPHOID_TISSUE. A digest of the protocol: as §1
Another assay concerns MFE280_ENDOMETRIUM
A digest of the protocol:
as §1

Take `CCN(C/C=C/C#CC(C)(C)C)Cc1cccc(OCc2cc(-c3ccsc3)cs2)c1` [NB-598]: the 50% growth inhibitory concentration (GI50) came to 0.0152 µM with NCIH1869_LUNG; 0.0249 µM with NCIH1666_LUNG; 0.144 µM with NCIH2126_LUNG; 0.17 µM in [1]; 12.6 µM in the assay with HEC1A_ENDOMETRIUM; 0.0224 µM in the assay on LK2_LUNG. Further, the GI50 is 42.7 µM in the assay with JHH5_LIVER; 0.00311 µM in the assay on NCIH1435_LUNG; 32.4 µM in the assay with EVSAT_BREAST; 0.598 µM in the assay with SNU503_LARGE_INTESTINE; 0.0731 µM with KYSE510_OESOPHAGUS; 0.0382 µM in the assay on CHP126_AUTONOMIC_GANGLIA. In addition, the GI50 amounted to 0.263 µM in the assay with SKMEL3_SKIN; 9.61 µM in [2]; 0.0255 µM in assay [3]; 2.07 µM in [4]; 0.0169 µM with MFE280_ENDOMETRIUM.
